# Read-outs that look alike come from different tables or passages of the source.
# Columns and labels:
# T-47D [1] = assay: Caspase cascade activation by known antineoplastic compounds (Example 92); conditions: 24 h; for fold induction at 10 µM: Homo sapiens, T47D, read-out: ratio of the net RFU value for test compounds to that of control samples (caspase cascade activation)
# Protocol: (§8) The samples were mixed by agitation and then incubated at 37° C for 24 h in a 5% CO2-95% humidity incubator. […] The samples were mixed by agitation and incubated for 3 h at room temperature. […] After the 3 h incubation, the samples were read for fluorescence as above (T = 3 h).
# (§9) The Relative Fluorescence Unit values (RFU) were used to calculate the sample readings as follows: RFU(T=3⁢hr) −Control RFU(T=0) = Net RFU(T=3⁢hr) [formula]
# (§10) The activity in caspase cascade activation was determined by the ratio of the net RFU value for test compounds to that of control samples.
# PC-3 [2] = assay: as above; conditions: for fold induction at 10 µM: Homo sapiens, PC-3, 24 h, read-out: ratio of the net RFU value for test compounds to that of control samples (caspase cascade activation)
# Protocol: as §8, §9, §10
# MRC-5 [3] = assay: Caspase cascade activation assay (Example 90); type: cell-based, human; conditions: for EC50: Homo sapiens; for caspase activity (Ratio): 0.16 to 10 µM final, net RFU ratio to control
# Protocol: (§1) Human breast cancer cell lines T-47D and ZR-75-1, human prostate cancer cell line PC-3, human leukemia cancer cell line HL-60 and human non-transformed fibroblast cell line MRC-5 cells were grown according to media component mixtures designated by The American Type Culture Collection + 10% FCS (Life Technologies, Inc.), in a 5% CO2 -95% humidity incubator at 37° C. T-47D, ZR-75-1 and PC-3 cells were maintained at a cell density between 30 and 80% confluency and for HL-60 at a cell density of 0.1 to 0.6 x 10^6 cells/ml. Cells were harvested at 600xg and resuspended at 0.65 x 10^6 cells/ml into appropriate media + 10% FCS. […] The samples were mixed by agitation and incubated at room temperature.
# (§2) The EC50 (nM) was determined by a sigmoidal dose-response calculation (Prism 2.0, GraphPad Software Inc.). Caspase Activity and Potency
# PC-3 [4] = assay: Caspase cascade activation assay (Example 90); type: cell-based, human; conditions: for EC50: Homo sapiens; for caspase activity (Ratio): 0.16 to 10 µM final, net RFU ratio to control
# Protocol: as §1, §2
# T-47D [5] = assay: Caspase cascade activation assay (Example 90); type: cell-based, human; conditions: for EC50: Homo sapiens, T47D; for caspase activity (Ratio): 0.16 to 10 µM final, net RFU ratio to control
# Protocol: as §1, §2
# ZR-75-1 [6] = assay: Caspase cascade activation assay (Example 90); type: cell-based, human; conditions: for EC50: Homo sapiens; for caspase activity (Ratio): 0.16 to 10 µM final, net RFU ratio to control
# Protocol: as §1, §2
# HL-60 [7] = assay: Caspase cascade activation assay (Example 90); type: cell-based, human; conditions: for caspase activity (Ratio): HL-60, 24 h incubation, 0.16 to 10 µM final, net RFU ratio to control
# Protocol: as §1, §2
# [8] = tested on: several cancer cell lines; conditions: cited from earlier work
# A-549 = assay: Inhibition of cell proliferation (GI50) and cell death (LC50), CellTiter 96 (Example 91); type: cell-based; conditions: Homo sapiens, A549, 48 h
# Protocol: (§3) T-47D, ZR-75-1, PC-3, human prostate cancer cell line DU-145, human non-small cell lung cancer cell line A-549, human small cell lung cancer cell line SHP-77, HL-60 and MRC-5 cells were grown and harvested as in Example 90. […] The samples were mixed by agitation and incubated at 37° C for 2-4 h in a 5% CO2-95% humidity incubator. […] This determines the possible background absorbance of the test compounds. No absorbance for gambogic acid or its analogs or derivatives was found at 490 nm. After the 2-4 h incubation, the samples were read for absorbance as above (ATest).
# (§4) The samples were mixed by agitation and incubated at 37° C for 2-4 h in a 5% CO2-95% humidity incubator. Absorbance was read as above, (AT=0) defining absorbance for initial cell number used as baseline in GI50 determinations and (Amin) defining absorbance for media alone used as baseline in LC50 determinations.
# (§5) GI50 (dose for50%inhibition of cell proliferation) 50 = 100 x [(ATest-AT = 0)/(Amax-AT = 0)] [formula] LC50 (dose for50%cell death) 50 = 100 x [(ATest-Amin)/(AT = 0-Amin)] [formula]
# DU-145 = assay: as above; type: cell-based; conditions: Homo sapiens, DU-145, 48 h
# Protocol: as §3, §4, §5
# HL-60 [9] = assay: as above; type: cell-based; conditions: Homo sapiens, HL-60, 48 h
# Protocol: as §3, §4, §5
# PC-3 [10] = assay: as above; type: cell-based; conditions: Homo sapiens, PC-3, 48 h
# Protocol: as §3, §4, §5
# SHP-77 = assay: as above; type: cell-based; conditions: Homo sapiens, SHP77, 48 h
# Protocol: as §3, §4, §5
# T-47D [11] = assay: as above; type: cell-based; conditions: Homo sapiens, T47D, 48 h
# Protocol: as §3, §4, §5
# ZR-75-1 [12] = assay: as above; type: cell-based; conditions: Homo sapiens, ZR-75-1, 48 h
# Protocol: as §3, §4, §5
# MRC-5 [13] = assay: as above; type: cell-based, human
# Protocol: as §3, §4, §5
# PC3 cells = assay: PARP cleavage, western blot (Example 98); type: cell-based, human; conditions: 1 µM, 2 h and 4 h (Fig. 5D)
# Protocol: (§6) Cleavage of the enzyme poly(ADP)ribose polymerase (PARP) by caspase-3 and related proteases is considered to be one of the molecular hallmarks of caspase-mediated apoptosis. Therefore, the ability of gambogic acid to induce PARP cleavage in four different human tumor cell lines (Jurkat cells, HL-60 cells, T47D cells and PC3 cells) was determined.
# (§7) […] Control cultures were treated with a drug vehicle (DMSO), or the well-characterized apoptosis inducer, staurosporine. At the end of the apoptosis induction period, the cells were harvested, washed once with PBS, quick-frozen on dry ice, and stored at -80° C. The cells were then lysed in a standard immunoblotting lysis buffer and samples of the lysates were electrophoresed on 4% to 20% gradient polyacrylamide gels. The proteins in the gels were then transferred to PVDF membranes and probed with a commercially-available rabbit polyclonal antibody to PARP.
# T47D cells = assay: PARP cleavage, western blot (Example 98); type: cell-based, human; conditions: 1 µM, 2 h and 4 h (Fig. 5C)
# Protocol: as §6, §7
# KB = conditions: Lin et al. 1993; cited from earlier work
# KB-V1 = conditions: Lin et al. 1993; cited from earlier work
# [14] = PC-3, caspase activation, 24 h incubation, read-out: EC50
# [15] = T-47D, caspase activation, 24 h incubation, read-out: EC50
# [16] = MRC-5 non-transformed fibroblasts, 24 h incubation
molecule,measurement,setting,value
COc1cc([C@@H]2c3cc4c(cc3[C@@H](O[C@@H]3O[C@@H]5CO[C@@H](C)O[C@H]5[C@H](O)[C@H]3O)[C@H]3COC(=O)[C@H]23)OCO4)cc(OC)c1O [Etoposide],fold induction at 10 µM,T-47D [1],1
same,fold induction at 10 µM,PC-3 [2],0.8
"COc1c2c(c(CC=C(C)C)c3c1C(=O)C1=CC4CC5C(C)(C)OC(C/C=C(/C)C(=O)N6CCCCC6)(C4=O)C15O3)OC(C)(CCC=C(C)C)C=C2 (stereo not shown) [Example 7, 6-Methoxy-gambogyl Piperidine]",EC50,"MRC-5 [3]; MRC5, MRC-5 non-transformed fibroblasts, caspase activation, 24 h incubation, read-out: EC50",1200 nM
same,EC50,PC-3 [4]; [14],1700 nM
same,EC50,T-47D [5]; [15],830 nM
same,EC50,"ZR-75-1 [6]; ZR-75-1, caspase activation, 24 h incubation, read-out: EC50",1650 nM
CC[C@@]1(O)C(=O)OCc2c1cc1n(c2=O)Cc2cc3ccccc3nc2-1 [Camptothecin],fold induction at 10 µM,T-47D [1],0.7
same,fold induction at 10 µM,PC-3 [2],0.6
CC(=O)O[C@H]1C(=O)[C@@]2(C)[C@H]([C@H](OC(=O)c3ccccc3)[C@]3(O)C[C@H](OC(=O)[C@H](O)[C@@H](NC(=O)c4ccccc4)c4ccccc4)C(C)=C1C3(C)C)[C@]1(OC(C)=O)CO[C@@H]1C[C@@H]2O [Taxol],fold induction at 10 µM,T-47D [1],0.9
same,fold induction at 10 µM,PC-3 [2],0.7
"CC(C)=CCCC1(C)C=Cc2c(O)c3c(c(CC=C(C)C)c2O1)OC12C(=CC4CC1C(C)(C)OC2(C/C=C(/C)C(=O)N1CCCCC1)C4=O)C3=O (stereo not shown) [Example 5, Gambogyl Piperidine]",caspase activity (Ratio),HL-60 [7],5.2
same,caspase activity (Ratio),MRC-5 [3]; [16],12.6
same,caspase activity (Ratio),"PC-3 [4]; PC-3, 24 h incubation",2.7
same,caspase activity (Ratio),"T-47D [5]; T-47D, 24 h incubation",13.9
same,caspase activity (Ratio),"ZR-75-1 [6]; ZR-75-1, 24 h incubation",14.3
N.N.[Cl][Pt][Cl] [Cisplatin],ratio of the net RFU value for test compounds to that of control samples (caspase cascade activation),"T-47D [1]; T-47D, 10 µM final, ratio around 1 = not an efficient activator",1.1
same,ratio of the net RFU value for test compounds to that of control samples (caspase cascade activation),"PC-3 [2]; PC-3, 10 µM final, 24 h, ratio around 1 = not an efficient activator",0.9
"CC(C)=CCc1c2c(c(O)c3c1OC14C(=CC5CC1C(C)(C)OC4(C/C=C(/C)C(=O)O)C5=O)C3=O)C=CC(C)(C)O2 (stereo not shown) [Example 19, Morellic Acid]",cytotoxicity,"[8]; several cancer cell lines, Cao et al. 1998",significant cytotoxicity
"CC(C)=CCc1c(O)cc(O)c2c1O[C@]13C(=C[C@@H]4C[C@H]1C(C)(C)O[C@@]3(CC=C(C)C)C4=O)C2=O [forbesione, reference compound]",cytotoxicity,[8],significant cytotoxicity
"CC(C)=CCC/C(C)=C/Cc1c(O)c(CC=C(C)C)c2c(c1O)C(=O)C1=CC3CC4C(C)(C)OC(C/C=C(/C)C=O)(C3=O)C14O2 (stereo not shown) [Example 3, Gambogenin]",EC50,PC-3 [4]; [14],1700 nM
same,caspase activity (Ratio),"PC-3 [4]; PC-3, 24 h incubation",2.9
same,EC50,T-47D [5]; [15],1000 nM
same,caspase activity (Ratio),"T-47D [5]; T-47D, 24 h incubation",7.0
O=c1[nH]cc(F)c(=O)[nH]1 [5-fluorouracil],fold induction at 10 µM,T-47D [1],0.8
same,fold induction at 10 µM,PC-3 [2],0.7
CC[C@]1(O)C[C@@H]2CN(CCc3c([nH]c4ccccc34)[C@@](C(=O)OC)(c3cc4c(cc3OC)N(C)[C@H]3[C@@](O)(C(=O)OC)[C@H](OC(C)=O)[C@]5(CC)C=CCN6CC[C@]43[C@@H]65)C2)C1 [Vinblastine],fold induction at 10 µM,T-47D [1],0.9
same,fold induction at 10 µM,PC-3 [2],0.8
COc1cccc2c1C(=O)c1c(O)c3c(c(O)c1C2=O)C[C@@](O)(C(=O)CO)C[C@@H]3O[C@H]1C[C@H](N)[C@H](O)[C@H](C)O1 [Doxorubicin],fold induction at 10 µM,T-47D [1],1.3
same,fold induction at 10 µM,PC-3 [2],1.1
"COC(=O)/C(C)=C\CC12OC(C)(C)C3CC(C=C4C(=O)c5c(O)c6c(c(CC=C(C)C)c5OC431)OC(C)(CCC=C(C)C)C=C6)C2=O (stereo not shown) [Example 4, Methyl Gambogate]",caspase activity (Ratio),HL-60 [7],7.7
same,EC50,"HL-60 [7]; Homo sapiens, HL-60, 24 h",339 nM
same,EC50,"MRC-5 [3]; MRC5, 24 h",501 nM
same,caspase activity (Ratio),MRC-5 [3]; [16],27.8
same,EC50,"PC-3 [4]; PC-3, 24 h",1330 nM
same,caspase activity (Ratio),"PC-3 [4]; PC-3, 24 h incubation",3.9
same,EC50,T-47D [5]; 24 h,484 nM
same,caspase activity (Ratio),"T-47D [5]; T-47D, 24 h incubation",16.8
same,EC50,"ZR-75-1 [6]; ZR-75-1, 24 h",1640 nM
same,caspase activity (Ratio),"ZR-75-1 [6]; ZR-75-1, 24 h incubation",14.9
same,GI50,A-549,500 nM
same,CC50,A-549; read-out: LC50,2000 nM
same,GI50,DU-145,500 nM
same,CC50,DU-145; read-out: LC50,500 nM
same,GI50,HL-60 [9],50 nM
same,CC50,HL-60 [9]; read-out: LC50,500 nM
same,GI50,PC-3 [10],500 nM
same,CC50,PC-3 [10]; read-out: LC50,500 nM
same,GI50,SHP-77,500 nM
same,CC50,SHP-77; read-out: LC50,500 nM
same,GI50,T-47D [11],40 nM
same,CC50,T-47D [11]; read-out: LC50,50 nM
same,GI50,ZR-75-1 [12],300 nM
same,CC50,ZR-75-1 [12]; read-out: LC50,500 nM
same,GI50,"MRC-5 [13]; Homo sapiens, MRC5, 48 h",200 nM
same,CC50,"MRC-5 [13]; MRC-5 non-transformed fibroblasts, 48 h, dose for 50% cell death",500 nM
"COC(=O)/C(C)=C\CC12OC(C)(C)C3CC(C=C4C(=O)c5c(OC)c6c(c(CC=C(C)C)c5OC431)OC(C)(CCC=C(C)C)C=C6)C2=O (stereo not shown) [Example 6, Methyl-6-methoxy-gambogate]",caspase activity (Ratio),"PC-3 [4]; PC-3, 24 h incubation",4.5
same,caspase activity (Ratio),"T-47D [5]; T-47D, 24 h incubation",12.0
"CN[C@@H]1C[C@H]2O[C@@](C)([C@@H]1OC)n1c3ccccc3c3c4c(c5c6ccccc6n2c5c31)C(=O)NC4 [staurosporine, reference compound]",PARP cleavage,PC3 cells,no cleavage of PARP
same,PARP cleavage,T47D cells,no cleavage of PARP
"CC(C)=CCC/C(C)=C/Cc1c(O)c(CC=C(C)C)c2c(c1O)C(=O)C1=CC3CC4C(C)(C)OC(C/C=C(/C)C(=O)O)(C3=O)C14O2 (stereo not shown) [Example 2, Gambogenic Acid]",caspase activity (Ratio),HL-60 [7],5.6
same,caspase activity (Ratio),MRC-5 [3]; [16],22.4
same,caspase activity (Ratio),"PC-3 [4]; PC-3, 24 h incubation",2.9
same,caspase activity (Ratio),"T-47D [5]; T-47D, 24 h incubation",16.9
same,caspase activity (Ratio),"ZR-75-1 [6]; ZR-75-1, 24 h incubation",14.2
CN(Cc1cnc2nc(N)nc(N)c2n1)c1ccc(C(=O)N[C@@H](CCC(=O)O)C(=O)O)cc1 [Methotrexate],fold induction at 10 µM,T-47D [1],0.8
same,fold induction at 10 µM,PC-3 [2],0.7
"CC(C)=CCc1c2c(c(O)c3c1OC14C(=CC5CC1C(C)(C)OC4(C/C=C(\C)CO)C5=O)C3=O)C=CC(C)(C)O2 (stereo not shown) [isomorellinol, reference compound]",cytotoxicity,KB,cytotoxic
same,cytotoxicity,KB-V1,cytotoxic
Isogambogic Acid [Example 18],cytotoxicity,KB,cytotoxic
same,cytotoxicity,KB-V1,cytotoxic
